Test results from US7294509B2, “Pre-adipose cell lines” (Nestec S.A., priority 2000, dated 2007).

Columns and labels:
Format in all cases: cell-based, human
[1] = tested on: Chub-S7 cells; experiment: Adipocyte marker gene expression by real-time RT-PCR during Chub-S7 cell differentiation; settings: for LPL mRNA fold-increase / aP2 mRNA fold-increase: day 17 as compared to day 0, 1 μM Dex alone or with 1 μM BRL49653 from day 3
Description: Adipocyte differentiation of Chub-S7 cells was tested under serum-free culture conditions. To promote pre-adipocyte differentiation, confluent cells were incubated with a basal medium (see Material and Methods) supplemented with 500 μM IBMX and 1 μM Dex for the first 3 days, and 1 μM of a PPARγ agonist (BRL49653) and 1 μM Dex from day 3 to 17. This condition was compared to the basal medium alone or supplemented with Dex plus IBMX from day 0 to 3 and Dex alone from day 3 to 17. To determine whether Chub-S7 cells were able to differentiate, the expression of adipocyte markers was assessed, by real-time RT-PCR, at different time points during cellular maturation. These markers included i) transcriptional factors involved in adipogenesis such as peroxisome proliferator-activated receptor γ (PPARγ) and CAAT/enhancer binding protein α (C/EBPα), ii) genes involved in lipid metabolism such as lipoprotein lipase (LPL) and adipocyte fatty acid binding protein (aP2), and finally iii) adipocyte secreted factors such as adipsin and leptin.
Chub-S7 cells were cultured from day 0 to 17 in the presence of the basal medium as defined in Material and Methods (m), or in the basal medium with 1 μM Dex plus 500 μM IBMX from day 0 to 3 and dexamethasone from day 3 to 17 (●) or supplemented with 1 μM BRL49653 (▪). The arrow indicates the day from which BRL49653 was added to the medium. Relative gene expression was quantified by real-time RT-PCR. Data are the means±SEM of values obtained at least in four separate experiments. […] Top panels show representative RT-PCRs performed at a number of cycle defined according to the linear amplification of the genes (see Material and Methods).
Cells were grown in a mixture of DMEM/F12 media supplemented with 10% FBS, 2 mM glutamine, 100 U/ml penicillin/streptamycin until confluency. For differentiation, cells were washed with PBS and cultured with a serum-free medium consisting of a mixture of DMEM/F12 media supplemented with 15 mM NaHCO3, 17 μM D-panthotenic acid, 15 mM Hepes, 33 μM biotin, 10 μg/ml transferrin, 1 nM triiodothyronin, 850 nM insulin and 500 μg/ml fetuin. This medium, referred to “basal medium” was supplemented with 1 μM dexamethasone (Dex) and 500 μM IBMX from day 0 to 3. Dex was maintained alone or with 1 μM BRL49653 from day 3 to 17 in order to promote differentiation. As stated in Results, oleic acid (OA) complexed with bovine serum albumin (BSA; ratio OA-to-BSA: 5: 1) was added to the medium containing BRL49653 from day 10 to 17. Lipid accumulation in differentiated cells was visualized by Oil red O staining as previously described (22). All the experiments on Chub-S7 cell characterization were performed between passages 18 and 32 (69 to 122 population doublings).
RNAs from Chub-S7 cells cultured from day 0 to 17 were extracted using the NucleoSpin® Total RNA Purification System (Macherey-Nagel, Oensingen Switzerland). Reverse transcription was performed with an input of 10 μg of total RNA using the 1st strand cDNA synthesis kit for RT-PCR (AMV; Roche Biomedical, Basel, Switzerland) with oligo d(T)15 as primer. Real-time reverse transcription-polymerase chain reaction analyses were performed in a fluorescent temperature cycler (GeneAmp® PCR 5700 Sequence Detection System; Applied Biosystem) according to the recommendations of the manufacturer. Briefly, after initial denaturation at 50° C. for 2 min and 95° C. for 10 min, reactions were cycled 40 times using the following parameters for all genes studied: 95° C. for 15s, primer annealing and extension at 60° C. for 1 min. SYBR Green I fluorescence was detected at the end of each cycle to monitor the amount of PCR product formed during that cycle. Primers used for the amplification of cDNAs of interest were synthesized by Mycrosynth (Windisch, Switzerland).
Cycle to cycle fluorescence emission was monitored and quantified using the GenAmp software provided by Applied Biosystem. […]

[2] = tested on: Chub-S7 cells; experiment: Lipolysis (glycerol release) in differentiated Chub-S7 cells; settings: 1 μM isoproterenol, 1 h; day 17; cells differentiated with BRL49653
Description: Lipolytic capacity of differentiated cells was assessed by measuring glycerol release, after stimulation or not for 1 h with 1 μM isoproterenol (Iso), a non-specific β-adrenergic agonist. Cells were differentiated in the presence of BRL49653 alone.
A. Chub-S7 cells were differentiated in the presence of 1 μM Dex plus 500 μM IBMX from day 0 to 3 and dexamethasone plus 1 μM BRL49653 from day 3 to 17. Glycerol released in the medium was measured in the presence or in the absence of 1 μM isoproterenol. Data are the means of values obtained at least in four separate experiments. […] B. Chub-S7 cells were cultured from day 0 to 17 in the presence of the basal medium (m), or in the basal medium with 1 μM Dex plus 500 μM IBMX from day 0 to 3 and Dex from day3 to 17 (●) or supplemented with 1 μM BRL49653 (▪). Data are the means±SEM of values obtained at least in four separate experiments.
(iv) Glycerol-3-phosphate dehydrogenase activity and lipolysis measurements Glycerol-3-phosphate dehydrogenase (GPDH) activity measured at different times during the differentiation process of Chub-S7 cells was determined using the enzymatic assay previously described (23). Lipolysis was determined at day 17 after confluency. […] Glycerol released in the medium was measured using the glycerokinase enzymatic radiometric assay described by Bradley and Kaslow (24).

[3] = tested on: Chub-S7 cells; experiment: Triglyceride accumulation in differentiated Chub-S7 cells (Oil red O staining); settings: 100 μM OA complexed with BSA, day 10 to 17, in differentiation medium containing BRL49653
Description: To study the ability of differentiated Chub-S7 cells to accumulate intracellular lipids, cells cultured for 17 days in the absence or in the presence of BRL49653 were fixed and stained with Oil-red O. Almost all the differentiated cells were able to accumulate at least one single lipid droplet and few of them presented large multilocular droplets (FIG. 10B).
Chub-S7 cells were grown in the presence of the basal medium with 1 μM dexamethasone plus 500 μM IBMX from day 0 to 3 and Dex from day 3 to 17 or supplemented with 1 μM BRL49653 alone or in the presence of 100 μM OA from day 10 to 17. At day 17, cells were fixed and triglycerides were visualized using the oil-red O staining. A: Staining of culture wells containing Chub-S7 cells differentiated under the conditions described above. B: Morphology of Chub-S7 cells differentiated with dexamethasone and BRL49653 or in the same medium supplemented with oleate (Magnitude 400×). Data are representative of at least 3 independent experiments.
Cells were grown in a mixture of DMEM/F12 media supplemented with 10% FBS, 2 mM glutamine, 100 U/ml penicillin/streptamycin until confluency. […]

| Compound | LPL mRNA fold-increase [1] | aP2 mRNA fold-increase [1] | also measured |
| --- | --- | --- | --- |
| CN(CCOc1ccc(CC2SC(=O)NC2=O)cc1)c1ccccn1 (centres unmarked) [BRL49653] | 308 fold-increase | 8372 fold-increase | leptin mRNA, higher in presence of BRL49653 compared to Dex alone ([1]; day 17, 1 μM BRL49653): 2 fold |
| C[C@@H]1C[C@H]2[C@@H]3CCC4=CC(=O)C=C[C@]4(C)[C@@]3(F)[C@@H](O)C[C@]2(C)[C@@]1(O)C(=O)CO [Dex, Dexamethasone] | 16 fold-increase | 8 fold-increase | – |
| CC(C)NCC(O)c1ccc(O)c(O)c1 (centres unmarked) [Iso, isoproterenol] | – | – | increase in lipolysis (glycerol release) [2]: 40.5% |
| CCCCCCCC/C=C\CCCCCCCC(=O)O [OA, oleic acid] | – | – | triglyceride content [3]: dramatic increase; expression of LPL, C/EBPα, aP2, leptin and adipsin induced by BRL49653 ([1]; 100 μM OA day 10 to 17, data not shown): did not affect |
